Results: patent US9777037B2, “Neurosteroid compounds” (BIONATURE E. A. LTD., priority 2007, dated 2017)

Tests used:
Ishikawa cells [1] = experiment: Alkaline phosphatase activity of Ishikawa cells, estrogen agonism/antagonism; assay type: cell-based, human
Description: Treatment of postmenopausal syndromes with 17β-estradiol (E2) is associated with a higher risk of developing breast and/or endometrial cancer (Arch Intern Med. 166, 1027 (2006)). E2 stimulation of the proliferation of cancer cells is driven by estrogen receptor alpha (ERα) (Mol. Endocrinol. 13, 969 (1999)). Since BNN-50, BNN-93 and BNN-124 may form two hydrogen bonds with an O—O distance of 10.9-12.5 Å and thus may fit the ERα binding cavity (Chem. Biol. 11, 397 (2004)), it was imperative to examine the estrogen agonism/antagonism properties of these neurosteroids using human adenocarcinoma cells from breast (MCF-7 cells) and uterus (Ishikawa cells) as reporters. Full estrogen agonism (E2 at ≧0.1 nM) and non-agonism (vehicle only) controls served to classify the neurosteroids as super, full, partial, weak and marginal agonists depending on whether their estrogenic efficacy was >100, 76-100, 26-75, 10-25 and 1-10% of that of E2 (set equal to 100). Similarly, full antagonism of the effect of E2 (at 0.1 nM) by ICI 182, 780 (at ≧10 nM) and non-antagonism (vehicle only) controls served to classify the neurosteroids as full, partial, weak and marginal antagonists depending on whether their suppression of the effect of E2 was 76-100, 26-75, 10-25 and 1-10% of that of ICI 182, 780. Differences between control and neurosteroid-treated cells were assessed using one-way ANOVA. […]

Ishikawa cells [2] = experiment: Ishikawa cell growth (MTT), estrogen agonism/antagonism; assay type: cell-based, human
Description: (§1) Treatment of postmenopausal syndromes with 17β-estradiol (E2) is associated with a higher risk of developing breast and/or endometrial cancer (Arch Intern Med. 166, 1027 (2006)). E2 stimulation of the proliferation of cancer cells is driven by estrogen receptor alpha (ERα) (Mol. Endocrinol. 13, 969 (1999)). Since BNN-50, BNN-93 and BNN-124 may form two hydrogen bonds with an O—O distance of 10.9-12.5 Å and thus may fit the ERα binding cavity (Chem. Biol. 11, 397 (2004)), it was imperative to examine the estrogen agonism/antagonism properties of these neurosteroids using human adenocarcinoma cells from breast (MCF-7 cells) and uterus (Ishikawa cells) as reporters. […] Differences between control and neurosteroid-treated cells were assessed using one-way ANOVA. […]
(§2) To determine neurosteroid effects on the growth of MCF-7 human mammary (from ATCC) and Ishikawa endometrial adenocarcinoma cells (from ECACC), the cells were cultured at 37° C. in Dulbecco's Minimal Essential Medium (DMEM) supplemented with 10% Fetal Bovine Serum (FBS, from Biochrom) in 5% CO2 and subcultured using a trypsin 0.25%-EDTA 0.02% solution. Neurosteroid effects on the growth of the cells were assessed using MTT [3-(4,5-dimethylthiazol-2-yl)-2,5-diphenyltetrazolium bromide] and standard methodology (Chem. Biol. 11, 397 (2004)). […]

[3] = tested on: tyrosine hydroxylase mRNA; experiment: Tyrosine hydroxylase (TH) RT-PCR in dopaminergic PC12 cells; assay type: cell-based, rat; conditions: dopaminergic PC12 cells (FIG. 6C)
Method: Tyrosine Hydroxylase (TH) RT-PCR: Total RNA was extracted from dopaminergic PC12 cells using the Trizol Reagent (Invitrogen Life technologies, CA). One microgram of total RNA was reverse transcribed by the Thermo-Script RT-PCR System (Invitrogen) using random hexamers in a total volume of 20 μl. Two microliters of the RT product was used as a template, amplified by PCR using 2 mM MgCl2, one strength PCR buffer, 0.2 mM of sense and antisense primers, 0.2 mM dNTPs and 2.5 U AmpliTaq Gold DNA polymerase (Perkin Elmer ABD, Foster City, Calif.) in a final reaction volume of 50 μl. PCR was performed in a Perkin Elmer DNA Thermal Cycler. Primers for TH were 5′-[…]-3′ (sense), and 5-[…]-3 (antisense) and for G3PDH were, 5′-[…]-3′ (sense), and 5′-[…]-3′ (antisense). Oligonucleotides were synthesized by MWG-Biotech AG (Munich, Germany). After reverse transcription, the cDNA product was amplified by PCR, at 33 cycles. The cycle number (33) was chosen such that amplification of the products was in the linear range with respect to the amount of input cDNA. PCR for G3PDH was performed in parallel to assure good quality of RNA and cDNA preparations. Each cycle consisted of 60 s at 92° C. for denaturation, 120 s at 53° C. for annealing, and 180 s at 72° C. for extension (60 s at 98° C., 90 s at 55° C., and 150 s at 72° C. for G3PDH respectively). 10 μl of the amplified products (368 bp for TH and 983 bp for G3PDH) were separated on a 2% agarose gel and visualized by ethidium bromide staining.

MCF-7 cells = experiment: MCF-7 cell growth (MTT), estrogen agonism/antagonism; assay type: cell-based, human
Description: as §1, §2

C[C@]12CC[C@H](O)CC1=CCC1C2CC[C@@]2(C)C1CC[C@@]21CO1 (stereo partly drawn) [BNN-50, 17β-spiro-[5-androsten-17,2′-oxiran]-3β-ol]
E2 agonism (at 1 uM), Ishikawa AlkP (Ishikawa cells [1]): non-significant
E2 antagonism (at 1 uM), Ishikawa AlkP (Ishikawa cells [1]; against E2 at 0.1 nM): marginal (1-10% of that of ICI 182, 780)
E2 agonism (at 1 uM), Ishikawa cell growth (Ishikawa cells [2]): non-significant
E2 antagonism (at 1 uM), Ishikawa cell growth (Ishikawa cells [2]; against E2 at 0.1 nM): non-significant
induction of tyrosine hydroxylase mRNA [3]: strong induction
E2 agonism (at 1 uM), MCF-7 cell growth (MCF-7 cells): non-significant
E2 antagonism (at 1 uM), MCF-7 cell growth (MCF-7 cells; against E2 at 0.1 nM): non-significant
